From patent US10993947B2, “Treatment of skin lesions” (PIQUR THERAPEUTICS AG, priority 2016, dated 2021)

Experiments:
[1] = biological target: T1, N-terminally GST-tagged mTOR (Homo sapiens, UniProt P42345); test: In vitro mTOR binding assay (LanthaScreen TR-FRET); conditions: LanthaScreen kinase binding, Tracer 314; read-out: mTOR IC50 (binding)
T1 construct: truncated version: amino acids 1360-2549; purchased Life Technologies PR8683B
Description: A 10-point 4-fold serial dilution (highest concentration at 10 μmol/L and lowest concentration at 40 μmol/L) of each compound was tested for mTOR binding in duplicate in a 384-well plate. […] After 30 min incubation at RT, time-resolved FRET was measured with a Synergy 4 multi-mode microplate reader (Biotek Instruments) using the following settings: 100 microsecs delay before data collection, 200 microsecs time for data collection, 10 measurements per data point.
IC50 values of each compound were determined by plotting the emission ratio versus the compound concentrations (in logarithmic scale) and then by fitting a sigmoidal dose-response curve with variable slope to the data using GraphPad™ Prism.

[2] = system: pS6 S235/S236 in A2058 cells; test: In-cell Western blot, pS6 S235/S236; type: cell-based; conditions: Homo sapiens, 1 hour treatment
Description: (§1) Cells are fixed with 4% paraformaldehyde for 30 minutes at room temperature, washed 2 times with 1% BSA in PBS, permeabilized with 0.1% Triton X-100 in PBS/1% BSA for 30 minutes at room temperature and blocked with 5% goat serum in PBS/1% BSA/0.1% Triton X-100 for 30 minutes at room temperature. […] Cells are washed 3 times 5 minutes with PBS/1% BSA/0.1% triton and plate scanned with the Odyssey Infrared Scanning system using both 700 and 800 nm channels. […] To correct for background staining in the data analysis wells are treated only with secondary antibodies.
(§2) For data analysis the mean background signal from channel 700 nm and 800 nm are subtracted from each signal in channel 700 nm and 800 nm, respectively.
(§3) IC50 values of each compound are determined by plotting the normalized pPBK S473 and pS6 S235/S236 signals, respectively, versus the compound concentrations (in logarithmic scale) and then by fitting a sigmoidal dose-response curve with variable slope to the data using GraphPad™ Prism.

pPKB S473 in A2058 cells = test: In-cell Western blot, pPKB S473; type: cell-based; conditions: Homo sapiens, 1 hour treatment
Description: as §1, §2, §3

T1 sequence (P42345 1360-2549): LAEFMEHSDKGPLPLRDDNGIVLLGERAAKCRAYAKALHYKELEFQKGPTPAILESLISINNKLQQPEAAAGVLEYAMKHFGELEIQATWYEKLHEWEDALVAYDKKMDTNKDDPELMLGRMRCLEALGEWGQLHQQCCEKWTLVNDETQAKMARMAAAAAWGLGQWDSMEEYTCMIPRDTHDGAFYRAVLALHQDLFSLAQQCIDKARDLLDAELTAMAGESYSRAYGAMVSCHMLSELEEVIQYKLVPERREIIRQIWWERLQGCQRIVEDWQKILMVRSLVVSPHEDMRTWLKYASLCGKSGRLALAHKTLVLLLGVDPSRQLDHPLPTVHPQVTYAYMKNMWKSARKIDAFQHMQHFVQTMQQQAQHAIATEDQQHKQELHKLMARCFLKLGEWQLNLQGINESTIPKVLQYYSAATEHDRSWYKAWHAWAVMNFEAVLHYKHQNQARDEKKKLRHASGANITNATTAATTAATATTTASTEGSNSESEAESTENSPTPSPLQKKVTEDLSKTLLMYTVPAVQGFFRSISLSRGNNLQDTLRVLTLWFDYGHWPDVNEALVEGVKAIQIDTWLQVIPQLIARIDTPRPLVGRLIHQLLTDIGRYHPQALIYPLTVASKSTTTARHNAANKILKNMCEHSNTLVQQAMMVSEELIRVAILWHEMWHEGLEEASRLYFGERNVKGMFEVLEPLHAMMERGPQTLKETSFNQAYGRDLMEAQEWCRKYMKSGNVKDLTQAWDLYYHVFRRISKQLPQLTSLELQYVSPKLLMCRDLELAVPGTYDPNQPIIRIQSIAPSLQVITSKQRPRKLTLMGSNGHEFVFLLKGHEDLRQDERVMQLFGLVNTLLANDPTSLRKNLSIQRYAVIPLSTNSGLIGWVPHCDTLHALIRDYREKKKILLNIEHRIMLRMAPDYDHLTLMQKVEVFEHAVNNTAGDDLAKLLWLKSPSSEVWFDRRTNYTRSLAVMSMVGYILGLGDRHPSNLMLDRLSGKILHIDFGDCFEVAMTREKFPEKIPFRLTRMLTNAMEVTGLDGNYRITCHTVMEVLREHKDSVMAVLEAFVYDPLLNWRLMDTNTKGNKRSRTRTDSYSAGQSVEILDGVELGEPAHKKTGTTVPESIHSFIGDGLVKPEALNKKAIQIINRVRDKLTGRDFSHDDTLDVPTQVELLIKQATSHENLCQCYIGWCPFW

Row | Structure (SMILES) | IC50 [1] [nM] | IC50 ([2]; A2058, 1 h) [nM] | IC50 (pPKB S473 in A2058 cells; A2058, 1 h) [nM] | IC50 [2] [nM] | IC50 (pPKB S473 in A2058 cells) [nM]
1 | Nc1cc(C(F)F)c(-c2nc(N3CCNCC3)nc(N3CCOCC3)n2)cn1 [Compound 12] | 543 | 515 | 208 |  | 
2 | Nc1ncc(-c2nc(N3CCNCC3)nc(N3CCOCC3)n2)c(C(F)F)n1 [Compound 13] | 1020 | 150 | 43 |  | 
3 | Nc1cc(C(F)F)c(-c2cc(N3CCOCC3)nc(N3CCOCC3)n2)cn1 [Compound 16, 4-(difluoromethyl)-5-(2,6-dimorpholinopyrimidin-4-yl)pyridin-2-amine] | 30 |  |  | 184 | 207
4 | Nc1cc(C(F)F)c(-c2nc(N3CCOCC3)cc(N3CCOCC3)n2)cn1 [Compound 18, 4-(difluoromethyl)-5-(4,6-dimorpholinopyrimidin-2-yl)pyridin-2-amine] | 31 |  |  | 256 | 243
5 | Nc1cc(C(F)F)c(-c2nc(N3CCOCC3)nc(N3CCSCC3)n2)cn1 [Compound 20] | 13 | 250 | 146 |  | 
6 | Nc1ncc(-c2nc(N3CCOCC3)nc(N3CCSCC3)n2)c(C(F)F)n1 [Compound 21] | 54 | 216 | 57 |  | 
7 | Nc1cc(C(F)F)c(-c2cc(N3C4CCC3COC4)nc(N3C4CCC3COC4)n2)cn1 [Compound 22, 5-(6-(3-oxa-8-azabicyclo[3.2.1]octan-8-yl)-2-(3-oxa-8-azabicyclo[3.2.1]octan-8-yl)pyrimidin-4-yl)-4-(difluoromethyl)pyridin-2-amine] | 18 | 216 | 57 |  | 
8 | Nc1cc(C(F)F)c(-c2cc(N3CCOCC3)nc(N3C4CCC3COC4)n2)cn1 [Compound 23, 5-(2-(3-oxa-8-azabicyclo[3.2.1]octan-8-yl)-6-morpholinopyrimidin-4-yl)-4-(difluoromethyl)pyridin-2-amine] | 40 | 230 | 285 |  | 
9 | Nc1ncc(-c2cc(N3CCOCC3)nc(N3C4CCC3COC4)n2)c(C(F)F)n1 [Compound 24, 2-(3-oxa-8-azabicyclo[3.2.1]octan-8-yl)-4′-(difluoromethyl)-6-morpholino-[4,5′-bipyrimidin]-2′-amine] | 35 | 167 | 84 |  | 
10 | C[C@H]1COCCN1c1cc(-c2cnc(N)cc2C(F)F)nc(N2CCOC[C@@H]2C)n1 [Compound 25, 5-(2,6-bis((S)-3-methylmorpholino)pyrimidin-4-yl)-4-(difluoromethyl)pyridin-2-amine] | 32 | 294 | 303 |  | 
11 | C[C@H]1COCCN1c1cc(-c2cnc(N)nc2C(F)F)nc(N2CCOC[C@@H]2C)n1 [Compound 26, 4′-(difluoromethyl)-2,6-bis((S)-3-methylmorpholino)-[4,5′-bipyrimidin]-2′-amine] | 47 | 191 | 87 |  | 
12 | C[C@H]1COCCN1c1cc(-c2cnc(N)cc2C(F)F)nc(N2CCOCC2)n1 [Compound 27, (S)-4-(difluoromethyl)-5-(6-(3-methylmorpholino)-2-morpholinopyrimidin-4-yl)pyridin-2-amine] | 65 |  |  | 766 | 614
13 | C[C@H]1COCCN1c1nc(-c2cnc(N)cc2C(F)F)cc(N2CCOCC2)n1 [Compound 31, (S)-4-(difluoromethyl)-5-(2-(3-methylmorpholino)-6-morpholinopyrimidin-4-yl)pyridin-2-amine] | 15 |  |  | 124 | 146
14 | C[C@H]1COCCN1c1nc(-c2cnc(N)nc2C(F)F)cc(N2CCOCC2)n1 [Compound 32, (S)-4′-(difluoromethyl)-2-(3-methylmorpholino)-6-morpholino-[4,5′-bipyrimidin]-2′-amine] | 293 |  |  | 387 | 100
15 | CC1(C)COCCN1c1nc(-c2cnc(N)cc2C(F)F)nc(N2CCOCC2(C)C)n1 [Compound 39, 5-[4,6-bis(3,3-dimethylmorpholin-4-yl)-1,3,5-triazin-2-yl]-4-(difluoromethyl)pyridin-2-amine] | 1 | 47 | 106 |  | 
16 | C[C@@H]1COC[C@H](C)N1c1nc(-c2cnc(N)cc2C(F)F)nc(N2[C@H](C)COC[C@@H]2C)n1 [Compound 40, 5-[4,6-bis[(3R,5S)-3,5-dimethylmorpholin-4-yl]-1,3,5-triazin-2-yl]-4-(difluoromethyl)pyridin-2-amine] | 5 |  |  | 160 | 252
17 | C[C@@H]1COCCN1c1nc(-c2cnc(N)cc2C(F)F)nc(N2CCOC[C@H]2C)n1 [Compound 41, 5-[4,6-bis[(3R)-3-methylmorpholin-4-yl]-1,3,5-triazin-2-yl]-4-(difluoromethyl)pyridin-2-amine] | 22 |  |  | 261 | 436

Row | Structure (SMILES) | IC50 [1] [nM] | IC50 ([2]; A2058, 1 h) [nM] | IC50 (pPKB S473 in A2058 cells; A2058, 1 h) [nM] | IC50 [2] [nM] | IC50 (pPKB S473 in A2058 cells) [nM]
18 | CC1(C)COCCN1c1nc(-c2cnc(N)cc2C(F)F)nc(N2CCOCC2)n1 [Compound 42, 4-(difluoromethyl)-5-[4-(3,3-dimethylmorpholin-4-yl)-6-morpholino-1,3,5-triazin-2-yl]pyridin-2-amine] | 3 | 45 | 54 |  | 
19 | C[C@@H]1COCCN1c1nc(-c2cnc(N)cc2C(F)F)nc(N2[C@H](C)COC[C@@H]2C)n1 [Compound 44, 4-(difluoromethyl)-5-[4-[(3R,5S)-3,5-dimethylmorpholin-4-yl]-6-[(3R)-3-methylmorpholin-4-yl]-1,3,5-triazin-2-yl]pyridin-2-amine] | 5 | 87 | 197 |  | 
20 | C[C@@H]1COCCN1c1nc(-c2cnc(N)cc2C(F)F)nc(N2CCOCC2(C)C)n1 [Compound 45, 4-(difluoromethyl)-5-[4-(3,3-dimethylmorpholin-4-yl)-6-[(3R)-3-methylmorpholin-4-yl]-1,3,5-triazin-2-yl]pyridin-2-amine] | 7 | 93 | 234 |  | 
21 | COC[C@@H]1COCCN1c1nc(-c2cnc(N)cc2C(F)F)nc(N2CCOC[C@H]2C)n1 [Compound 46, 4-(difluoromethyl)-5-[4-[(3R)-3-(methoxymethyl)morpholin-4-yl]-6-[(3R)-3-methylmorpholin-4-yl]-1,3,5-triazin-2-yl]pyridin-2-amine] | 36 | 426 | 956 |  | 
22 | C[C@@H]1COCCN1c1nc(-c2cnc(N)cc2C(F)F)nc(N2C3COCC2COC3)n1 [Compound 47, 4-(difluoromethyl)-5-[4-(3,7-dioxa-9-azabicyclo[3.3.1]nonan-9-yl)-6-[(3R)-3-methylmorpholin-4-yl]-1,35-triazin-2-yl]pyridin-2-amine] | 29 | 176 | 469 |  | 
23 | C[C@@H]1COC[C@H](C)N1c1nc(-c2cnc(N)cc2C(F)F)nc(N2CCOCC2(C)C)n1 [Compound 66, 4-(difluoromethyl)-5-[4-(3,3-dimethylmorpholin-4-yl)-6-[(3R,5S)-3,5-dimethylmorpholin-4-yl]-1,3,5-triazin-2-yl]pyridin-2-amine] | 4 | 139 | 244 |  | 
24 | CC1(C)COCCN1c1nc(-c2cnc(N)cc2C(F)F)nc(N2C3COCC2COC3)n1 [Compound 69, 4-(difluoromethyl)-5-[4-(3,3-dimethylmorpholin-4-yl)-6-(3,7-dioxa-9-azabicyclo[3.3.1]nonan-9-yl)-1,3,5-triazin-2-yl]pyridin-2-amine] | 21 | 140 | 244 |  | 
25 | C[C@@H]1COCCN1c1nc(-c2cnc(N)cc2C(F)F)nc(N2[C@H](C)COC[C@H]2C)n1 [Compound 78, 4-(difluoromethyl)-5-[4-[(3R,5R)-3,5-dimethylmorpholin-4-yl]-6-[(3R)-3-methylmorpholin-4-yl]-1,3,5-triazirin-2-yl]pyridin-2-amine] | 38 | 392 | 506 |  | 
26 | C[C@@H]1COCCN1c1nc(-c2cnc(N)cc2C(F)F)nc(N2[C@@H](C)COC[C@@H]2C)n1 [Compound 79, 4-(difluoromethyl)-5-[4-[(3S,5S)-3,5-dimethylmorpholin-4-yl]-6-[(3R)-3-methylmorpholin-4-yl]-1,3,5-triazin-2-yl]pyridin-2-amine] | 10 | 136 | 200 |  | 
27 | Nc1cc(C(F)F)c(-c2nc(N3C4CCCC3COC4)nc(N3C4COCC3COC4)n2)cn1 [Compound 82, 4-(difluoromethyl)-5-[4-(3,7-dioxa-9-azabicyclo[3.3.1]nonan-9-yl)-6-(3-oxa-9-azabicyclo[3.3.1]nonan-9-yl)-1,3,5-triazin-2-yl]pyridin-2-amine] | 40 | 169 | 329 |  | 
28 | C[C@H]1COC[C@H](C)N1c1nc(-c2cnc(N)cc2C(F)F)nc(N2[C@@H](C)COC[C@@H]2C)n1 [Compound 83, 5-[4,6-bis[(3S,5S)-3,5-dimethylmorpholin-4-yl]-1,3,5-triazin-2-yl]-4-(difluoromethyl)pyridin-2-amine] | 32 |  |  | 294 | 379
29 | C[C@@H]1COCCN1c1nc(-c2cnc(N)cc2C(F)F)nc(N2CCOCC23CCC3)n1 [Compound 88, 4-(difluoromethyl)-5-[4-[(3R)-3-methylmorpholin-4-yl]-6-(8-oxa-5-azaspiro[3.5]nonan-5-yl)-1,3,5-triazin-2-yl]pyridin-2-amine] | 18 | 192 | 271 |  | 
30 | Nc1ncc(-c2cc(N3CCOCC3)nc(N3CCOCC3)n2)c(C(F)(F)F)n1 [reference compound] | 644 | 384 | 194 |  | 
31 | Nc1cc(C(F)(F)F)c(-c2nc(N3CCOCC3)cc(N3CCOCC3)n2)cn1 [reference compound] | 366 |  |  | 665 | 555
32 | Nc1ncc(-c2nc(N3CCOCC3)cc(N3CCOCC3)n2)c(C(F)(F)F)n1 [reference compound] | 1920 | 370 | 175 |  | 
33 | C[C@H]1COCCN1c1cc(-c2cnc(N)cc2C(F)(F)F)nc(N2CCOC[C@@H]2C)n1 [reference compound] | 152 | 553 | 452 |  | 
